The record followed here is ChEMBL document CHEMBL1154053, “The structure-based design, synthesis, and biological evaluation of DNA-binding amide linked bisintercalating bisanthrapyrazole anticancer compounds” (Bioorg Med Chem, 2009).

Assay [1] is described as follows: Growth inhibition of human K/VP.5 cells by MTS method. The format is functional.
For assay [2], the target named is DNA topoisomerase 2-alpha (Homo sapiens, UniProt P11388). Put plainly: Inhibition of decatenation activity of human topoisomerase 2alpha.
The next assay deals with Calf thymus DNA. Put plainly: Binding affinity to calf thymus DNA assessed as change in melting temperature at 2 uM by thermal denaturation assay. The format is nucleic-acid assay. To be noted: Bos taurus.
Assay [3] concerns K562. As to the kind of experiment: Growth inhibition of human K562 cells by MTS method. In kind it is functional, cell-based.
Assay [4] has as its system K562. Put plainly: Resistance factor, ratio of IC50 for human K/VP.5 cells to IC50 for human K562 cells. In kind it is functional.

Sequence of DNA topoisomerase 2-alpha (P11388 whole entry): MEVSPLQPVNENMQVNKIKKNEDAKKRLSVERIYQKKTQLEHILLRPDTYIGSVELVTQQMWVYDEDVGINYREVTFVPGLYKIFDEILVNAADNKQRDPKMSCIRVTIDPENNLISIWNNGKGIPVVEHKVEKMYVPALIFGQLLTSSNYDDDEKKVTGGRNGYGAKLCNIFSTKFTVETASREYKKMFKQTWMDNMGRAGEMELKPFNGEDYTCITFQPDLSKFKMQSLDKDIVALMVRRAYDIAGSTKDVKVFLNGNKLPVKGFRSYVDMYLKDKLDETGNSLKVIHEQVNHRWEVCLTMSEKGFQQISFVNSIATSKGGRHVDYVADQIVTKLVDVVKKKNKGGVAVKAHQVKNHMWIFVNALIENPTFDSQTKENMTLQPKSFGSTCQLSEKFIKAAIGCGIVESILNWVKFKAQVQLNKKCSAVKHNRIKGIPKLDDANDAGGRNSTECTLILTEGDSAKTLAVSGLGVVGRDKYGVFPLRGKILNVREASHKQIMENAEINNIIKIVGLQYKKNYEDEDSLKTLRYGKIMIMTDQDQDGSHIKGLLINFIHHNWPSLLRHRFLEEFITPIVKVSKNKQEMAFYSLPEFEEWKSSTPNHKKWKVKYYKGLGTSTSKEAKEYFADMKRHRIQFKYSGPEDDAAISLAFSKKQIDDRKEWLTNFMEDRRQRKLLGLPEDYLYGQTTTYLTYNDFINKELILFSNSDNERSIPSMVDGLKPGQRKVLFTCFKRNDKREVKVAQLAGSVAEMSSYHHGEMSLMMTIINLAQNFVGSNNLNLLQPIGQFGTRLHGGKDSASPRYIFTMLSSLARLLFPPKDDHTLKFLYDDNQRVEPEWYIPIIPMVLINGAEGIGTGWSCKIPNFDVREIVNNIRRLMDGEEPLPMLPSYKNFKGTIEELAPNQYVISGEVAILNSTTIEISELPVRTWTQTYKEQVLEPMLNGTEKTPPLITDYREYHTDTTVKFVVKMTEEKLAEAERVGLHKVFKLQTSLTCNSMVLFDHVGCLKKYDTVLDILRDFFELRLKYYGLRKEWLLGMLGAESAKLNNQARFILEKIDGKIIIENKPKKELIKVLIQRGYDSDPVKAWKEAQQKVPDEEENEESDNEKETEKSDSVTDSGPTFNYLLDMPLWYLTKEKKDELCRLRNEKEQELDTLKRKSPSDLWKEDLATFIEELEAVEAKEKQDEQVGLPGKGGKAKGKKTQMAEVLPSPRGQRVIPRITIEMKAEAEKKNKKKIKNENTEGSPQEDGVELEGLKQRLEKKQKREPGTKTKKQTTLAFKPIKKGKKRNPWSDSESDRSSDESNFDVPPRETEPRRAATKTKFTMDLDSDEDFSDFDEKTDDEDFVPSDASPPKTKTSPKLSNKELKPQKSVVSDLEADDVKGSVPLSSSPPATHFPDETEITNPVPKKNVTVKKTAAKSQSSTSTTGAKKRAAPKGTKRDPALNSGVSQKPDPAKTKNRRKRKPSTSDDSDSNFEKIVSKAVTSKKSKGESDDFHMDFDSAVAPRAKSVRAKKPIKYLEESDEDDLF

Take `CN(CCNC(=O)CCCCC(=O)NCCN(C)CCn1nc2c3c(cccc31)C(=O)c1c(Cl)cccc1-2)CCn1nc2c3c(cccc31)C(=O)c1c(Cl)cccc1-2`: the results for the IC50 (in assay [1]; in assay [2]; in the assay with K562 [3]) were 3.3 µM, 48 µM and 6.7 µM, respectively. In the assay with Calf thymus DNA, the ΔTm is 6.8 °C. Also, in the assay on K562 [4], the “Ratio IC50” value worked out at 0.48.

For the compound `CN(CCNC(=O)CCCCCC(=O)NCCN(C)CCn1nc2c3c(cccc31)C(=O)c1c(Cl)cccc1-2)CCn1nc2c3c(cccc31)C(=O)c1c(Cl)cccc1-2`, the IC50 in assay [1] was found to be 2.5 µM; in assay [2], 22 µM; with K562 [3] it was 4.6 µM. Further, the ΔTm in the assay on Calf thymus DNA was 4.8 °C. The “Ratio IC50” value with K562 [4] stood at 0.55.

In the case of `CN(CCO)CCn1nc2c3c(cccc31)C(=O)c1c(Cl)cccc1-2`, the results for the IC50 (in assay [1]; in assay [2]; in the assay on K562 [3]) were 1.9 µM, 10 µM and 3.1 µM, respectively. The ΔTm in the assay on Calf thymus DNA was 5.4 °C. In addition, the “Ratio IC50” value with K562 [4] was found to be 0.63.

For the compound `CN(CCNC(=O)CC(=O)NCCN(C)CCn1nc2c3c(cccc31)C(=O)c1c(Cl)cccc1-2)CCn1nc2c3c(cccc31)C(=O)c1c(Cl)cccc1-2`, the half-inhibitory concentration (IC50) worked out at 2 µM in assay [1], 42 µM in assay [2] and 2.6 µM with K562 [3]. Further, the thermal shift (ΔTm) with Calf thymus DNA worked out at 9.6 °C. Also, the “Ratio IC50” value in the assay on K562 [4] was found to be 0.77.

Take `CN(CCNC(=O)CCCC(=O)NCCN(C)CCn1nc2c3c(cccc31)C(=O)c1c(Cl)cccc1-2)CCn1nc2c3c(cccc31)C(=O)c1c(Cl)cccc1-2`: the IC50 in assay [1] was 2.3 µM; in assay [2] it was 25 µM; with K562 [3], 5.7 µM. For the same compound, the ΔTm in the assay with Calf thymus DNA was 17.8 °C. In addition, the “Ratio IC50” value in the assay on K562 [4] is on record as 0.39.

On to `CN(CCNC(=O)CCC(=O)NCCN(C)CCn1nc2c3c(cccc31)C(=O)c1c(Cl)cccc1-2)CCn1nc2c3c(cccc31)C(=O)c1c(Cl)cccc1-2`, for which the half-maximal inhibitory concentration (IC50) in assay [1] turned out to be 1.6 µM; in assay [2], 7 µM; in the assay with K562 [3], 3.5 µM. For the same compound, the ΔTm in the assay with Calf thymus DNA came out at 21.8 °C. Besides, the “Ratio IC50” value in the assay on K562 [4] is recorded as 0.44.

As for `CN(CCN=[N+]=[N-])CCn1nc2c3c(cccc31)C(=O)c1c(Cl)cccc1-2`, the concentration for half-maximal inhibition (IC50) in assay [2] was 25 µM; in the assay on K562 [3], 3.6 µM. In the assay on Calf thymus DNA, the ΔTm was 1.1 °C.

In the case of `CN(CCN)CCn1nc2c3c(cccc31)C(=O)c1c(Cl)cccc1-2`, the IC50 in assay [1] was 1.5 µM; in assay [2] it was 18 µM; with K562 [3], 3.6 µM. Further, the ΔTm in the assay on Calf thymus DNA was 10.2 °C. Also, in the assay with K562 [4], the “Ratio IC50” value is 0.43.

As for `COc1cccc2c1C(=O)c1c(O)c3c(c(O)c1C2=O)C[C@@](O)(C(=O)CO)C[C@@H]3O[C@H]1C[C@H](N)[C@H](O)[C@H](C)O1`, the shift in melting temperature (ΔTm) in the assay on Calf thymus DNA stood at 17.8 °C.

The IC50 is the concentration that gives 50% inhibition. High values mean weaker potency, low ones greater potency. The ΔTm is the change in melting temperature against a reference sample.
